# Laboratory results reported in patent US5258406A, “Sulfonimidamides” (priority 1992, dated 1993).
# Read-outs that look alike come from different tables or passages of the source.
# What was measured:
# Assay type in all cases: in vivo
# 6C3HED lymphosarcoma = test: animal or person
# HC1 = system: HC1
# Experimental: (§1) The compounds were tested in C3H mice bearing a 6C3HED lymphosarcoma, also known as the Gardner lymphosarcoma (GLS), and in a variety of human tumor xenografts in CD1 nu/nu mice, including CX-1, LX-1, HXGC3, and VRC5. The 6C3HED lymphosarcoma was obtained from the Division of Cancer Treatment, National […] Institute, Tumor Bank, maintained at E. G. and G. Mason Research (Worcester, Mass.). The CX-1 human colon carcinoma and the LX-1 human lung carcinoma xenografts were obtained from the National Cancer Institute. The HXGC3 and VRC5 human colon xenografts were obtained from Dr. P. J. Houghton, St. Jude Children's Hospital in Memphis (see Br. J. Cancer, 37, 213 (1978)). First passage tumor was stored in liquid nitrogen using standard techniques. The transplanted tumor was reestablished from the Tumor Bank every six months or as needed. The tumor was maintained by serial passage twice weekly in C3H mice.
# (§2) In the procedure the tumor was removed from passage animals and minced into 1- to 3-mm square fragments using sterile techniques. Tumor pieces were checked for sterility using both Antibiotic Medium 1 and Brain Heart Infusion (Difco, Detroit, Mich.). Recipient mice were shaved and tumor pieces were implanted subcutaneously in the auxiliary region by trocar. Drug therapy on the appropriate schedule was initiated on the day after tumor implant for 6C3HED and after a seven (7) day delay for xenografts (or other delay as noted in Table 2). The compound being tested was mixed with 2.5% Emulphor EL620 from GAF Corporation (1:40 dilution in saline). Food and water were provided ad libitium. The drug was administered orally in 0.5 ml of 2.5% Emulphor (unless otherwise indicated). The tumor was measured the day after treatment ended with two dimensional measurements (width and length) of the tumor taken using automated digital calipers interfaced to a microcomputer. Approximate weight for the tumor was calculated using the following formula [Worzalla, J. F., et al., Invest. New Drugs, 8, 241 (1990], (tumor weight in mg)=(width in mm)^2 ×(length in mm)/2.
# (§3) At least one control group of an equal number of mice was treated with the same volume of 2.5% Emulphor only. The percent inhibition was determined by subtracting the ratio of the mean tumor size of the test group relative to the control group from one and multiplying the result times 100.
# (§4) The results of several experiments in mice bearing a 6C3HED lymphosarcoma (or other tumor where indicated) when the indicated compounds were administered are provided in Table 2. In Table 2, column 1 gives the Example number of the compound used, column 2 lists the dose level in mg/kg, column 3 provides the percent inhibition of tumor growth, column 4 gives the number of mice which died relative to the total number of animals in the group, column 5 gives the method of administration of the compound, and column 6 gives the dosage schedule. The protocol used with other tumors was the same as with the 6C3HED lymphosarcoma.
# LX1 = settings: oral, DX 10, from day 7 after implant
# Experimental: as §1, §2, §3, §4
# VRC5 = settings: oral
# Experimental: as §1, §2, §3, §4
smiles,measurement,setting,value
NS(=O)(=NC(=O)Nc1ccc(Cl)cc1)c1ccc(CO)cc1 (stereo not drawn) [Example 50],Tox/Tot (mice which died / total),"6C3HED lymphosarcoma; IP, 5 mg/kg, BIDX 8",0/10
same,Tox/Tot (mice which died / total),"6C3HED lymphosarcoma; IP, 10 mg/kg, BIDX 8",0/10
same,Tox/Tot (mice which died / total),"6C3HED lymphosarcoma; IP, 20 mg/kg, BIDX 8",0/10
same,Tox/Tot (mice which died / total),"6C3HED lymphosarcoma; IP, 40 mg/kg, BIDX 8",1/10
same,Tox/Tot (mice which died / total),"6C3HED lymphosarcoma; IP, 75 mg/kg, BIDX 8",0/10
same,Tox/Tot (mice which died / total),"6C3HED lymphosarcoma; IP, 150 mg/kg, BIDX 8",0/10
same,Tox/Tot (mice which died / total),"6C3HED lymphosarcoma; IP, 150 mg/kg, DX 8",0/10
same,Tox/Tot (mice which died / total),"6C3HED lymphosarcoma; IP, 300 mg/kg, BIDX 8",9/10
same,Tox/Tot (mice which died / total),"6C3HED lymphosarcoma; IP, 300 mg/kg, DX 8",1/10
same,inhibition in vivo at 5 mg/kg,"6C3HED lymphosarcoma; Mus musculus, 6C3HED, ip, read-out: % inhibition of tumor growth, IP, 5 mg/kg, BIDX 8",34%
same,inhibition in vivo at 10 mg/kg,"6C3HED lymphosarcoma; Mus musculus, 6C3HED, ip, read-out: % inhibition of tumor growth, IP, 10 mg/kg, BIDX 8",49%
same,inhibition in vivo at 20 mg/kg,"6C3HED lymphosarcoma; Mus musculus, 6C3HED, ip, read-out: % inhibition of tumor growth, IP, 20 mg/kg, BIDX 8",72%
same,inhibition in vivo at 40 mg/kg,"6C3HED lymphosarcoma; Mus musculus, 6C3HED, ip, read-out: % inhibition of tumor growth, IP, 40 mg/kg, BIDX 8",86%
same,inhibition in vivo at 75 mg/kg,"6C3HED lymphosarcoma; Mus musculus, 6C3HED, ip, read-out: % inhibition of tumor growth, IP, 75 mg/kg, BIDX 8",96%
same,inhibition in vivo at 150 mg/kg,"6C3HED lymphosarcoma; Mus musculus, 6C3HED, ip, read-out: % inhibition of tumor growth, IP, 150 mg/kg, BIDX 8",99%
same,inhibition in vivo at 150 mg/kg,"6C3HED lymphosarcoma; Mus musculus, 6C3HED, ip, read-out: % inhibition of tumor growth, IP, 150 mg/kg, DX 8",93%
same,inhibition in vivo at 300 mg/kg,"6C3HED lymphosarcoma; Mus musculus, 6C3HED, ip, read-out: % inhibition of tumor growth, IP, 300 mg/kg, BIDX 8",100%
same,inhibition in vivo at 300 mg/kg,"6C3HED lymphosarcoma; Mus musculus, 6C3HED, ip, read-out: % inhibition of tumor growth, IP, 300 mg/kg, DX 8",99%
same,inhibition in vivo at 75 mg/kg,"6C3HED lymphosarcoma; Mus musculus, 6C3HED, po, read-out: % inhibition of tumor growth, oral, 75 mg/kg, BIDX 8",99%
same,inhibition in vivo at 150 mg/kg,"6C3HED lymphosarcoma; Mus musculus, 6C3HED, po, read-out: % inhibition of tumor growth, oral, 150 mg/kg, BIDX 8",100%
same,inhibition in vivo at 300 mg/kg,"6C3HED lymphosarcoma; Mus musculus, 6C3HED, po, read-out: % inhibition of tumor growth, oral, 300 mg/kg, BIDX 8",100%
same,Tox/Tot (mice which died / total),"6C3HED lymphosarcoma; oral, 75 mg/kg, BIDX 8",2/10
same,Tox/Tot (mice which died / total),"6C3HED lymphosarcoma; oral, 150 mg/kg, BIDX 8",2/10
same,Tox/Tot (mice which died / total),"6C3HED lymphosarcoma; oral, 300 mg/kg, BIDX 8",9/10
same,% inhibition of tumor growth,"HC1; IP 0.6 ml, 5 mg/kg, BIDX 14",6%
same,Tox/Tot (mice which died / total),"HC1; IP 0.6 ml, 5 mg/kg, BIDX 14",0/10
same,% inhibition of tumor growth,"HC1; IP 0.6 ml, 10 mg/kg, BIDX 14",31%
same,Tox/Tot (mice which died / total),"HC1; IP 0.6 ml, 10 mg/kg, BIDX 14",0/10
same,% inhibition of tumor growth,"HC1; IP 0.6 ml, 20 mg/kg, BIDX 14",33%
same,Tox/Tot (mice which died / total),"HC1; IP 0.6 ml, 20 mg/kg, BIDX 14",0/10
same,% inhibition of tumor growth,"HC1; IP 0.6 ml, 40 mg/kg, BIDX 14",71%
same,Tox/Tot (mice which died / total),"HC1; IP 0.6 ml, 40 mg/kg, BIDX 14",1/10
same,% inhibition of tumor growth,"HC1; oral, 75 mg/kg, BIDX 10",46%
same,Tox/Tot (mice which died / total),"HC1; oral, 75 mg/kg, BIDX 10",0/9
same,% inhibition of tumor growth,"HC1; oral, 150 mg/kg, BIDX 10",23%
same,Tox/Tot (mice which died / total),"HC1; oral, 150 mg/kg, BIDX 10",2/9
same,% inhibition of tumor growth,LX1; 150 mg/kg,32%
same,Tox/Tot (mice which died / total),LX1; 150 mg/kg,0/10
same,% inhibition of tumor growth,LX1; 300 mg/kg,34%
same,Tox/Tot (mice which died / total),LX1; 300 mg/kg,0/10
same,% inhibition of tumor growth,"VRC5; 150 mg/kg, DX 10",27%
same,Tox/Tot (mice which died / total),"VRC5; 150 mg/kg, DX 10",0/10
same,% inhibition of tumor growth,"VRC5; 300 mg/kg, DX 10",59%
same,Tox/Tot (mice which died / total),"VRC5; 300 mg/kg, DX 10",0/10
"CCCCN=S(=O)(NC(=O)Nc1ccc(Cl)cc1)c1ccc(C)cc1 (stereo not drawn) [Example 7, N-[[(4-chlorophenyl)amino]carbonyl]-N'-butyl-4-methylbenzenesulfonimidamide]",inhibition in vivo at 18.75 mg/kg,"6C3HED lymphosarcoma; Mus musculus, 6C3HED, po, read-out: % inhibition of tumor growth, oral, 18.75 mg/kg, BIDX 10",21%
same,inhibition in vivo at 37.5 mg/kg,"6C3HED lymphosarcoma; Mus musculus, 6C3HED, po, read-out: % inhibition of tumor growth, oral, 37.5 mg/kg, BIDX 10",45%
same,inhibition in vivo at 75 mg/kg,"6C3HED lymphosarcoma; Mus musculus, 6C3HED, po, read-out: % inhibition of tumor growth, oral, 75 mg/kg, BIDX 10",69%
same,inhibition in vivo at 150 mg/kg,"6C3HED lymphosarcoma; Mus musculus, 6C3HED, po, read-out: % inhibition of tumor growth, oral, 150 mg/kg, BIDX 10",88%
same,Tox/Tot (mice which died / total),"6C3HED lymphosarcoma; oral, 18.75 mg/kg, BIDX 10",0/10
same,Tox/Tot (mice which died / total),"6C3HED lymphosarcoma; oral, 37.5 mg/kg, BIDX 10",0/10
same,Tox/Tot (mice which died / total),"6C3HED lymphosarcoma; oral, 75 mg/kg, BIDX 10",0/10
same,Tox/Tot (mice which died / total),"6C3HED lymphosarcoma; oral, 150 mg/kg, BIDX 10",0/10
same,% inhibition of tumor growth,"VRC5; 50 mg/kg, BIDX 10",0%
same,Tox/Tot (mice which died / total),"VRC5; 50 mg/kg, BIDX 10",0/10
